The results in this text go back to patent publication US12060347B2 (BRISTOL-MYERS SQUIBB COMPANY, priority 2016, dated 2024).

Structures are written as SMILES.

This assay addresses T1, human PAR4 (Homo sapiens, UniProt Q96RI0).
T1 construct: expressed in transfected cells; host or cells: HEK293 PAR4 Clone 1.2A (BMS Arctic ID 383940)
T1 sequence (Q96RI0 18-385): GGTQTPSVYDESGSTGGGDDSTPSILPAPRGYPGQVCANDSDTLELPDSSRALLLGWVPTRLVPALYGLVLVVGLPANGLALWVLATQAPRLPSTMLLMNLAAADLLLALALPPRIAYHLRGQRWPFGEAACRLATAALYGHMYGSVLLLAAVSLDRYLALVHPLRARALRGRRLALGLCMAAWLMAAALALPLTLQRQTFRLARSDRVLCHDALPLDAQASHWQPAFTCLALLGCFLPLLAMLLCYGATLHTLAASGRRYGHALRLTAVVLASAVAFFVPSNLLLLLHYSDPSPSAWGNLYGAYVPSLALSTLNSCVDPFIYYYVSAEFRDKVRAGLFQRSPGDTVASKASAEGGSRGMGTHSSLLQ
Nature of the assay: PAR4 FLIPR assay: antagonism of agonist-peptide-induced calcium mobilization in PAR4-expressing HEK293 cells. It is filed as cell-based. The conditions noted are these: H-Ala-Phe(4-F)-[…]NH2-induced intracellular calcium mobilization, 11-point curves.
Take `COCc1cnc2c(-c3nc4c(Cl)cccc4s3)cc(C)cc2n1` [Example 260, 4-chloro-2-(2-(methoxymethyl)-7-methylquinoxalin-5-yl)benzo[d]thiazole]: the IC50 was found to be 4.8 nM.
Take `COCc1cnc2c(-c3nc4c(C)cccc4s3)cc(C)cc2n1` [Example 261, 2-(2-(methoxymethyl)-7-methylquinoxalin-5-yl)-4-methylbenzo[d]thiazole]: the IC50 turned out to be 1.2 nM.
The value for `COCc1cnc2c(-c3nc4c(C)cc(OC(F)(F)F)cc4s3)cc(C)cc2n1` [Example 262, 2-(2-(methoxymethyl)-7-methylquinoxalin-5-yl)-4-methyl-6-(trifluoromethoxy)benzo[d]thiazole] was 0.8 nM.
As to `COCc1cnc2c(-c3nc4c(C)cc(OC(F)F)cc4s3)cc(C)cc2n1` [Example 263, 6-(difluoromethoxy)-2-(2-(methoxymethyl)-7-methylquinoxalin-5-yl)-4-methylbenzo[d]thiazole], the IC50 was determined as 0.8 nM.
The figure for `COCc1cnc2c(-c3nc4ccc(C(=O)OC)cc4s3)cc(C)cc2n1` [Example 264] is 8.3 nM.
For `COCc1cnc2c(-c3nc4c(Cl)cc(OC)c(F)c4s3)cc(C)cc2n1` [Example 265, 4-chloro-7-fluoro-6-methoxy-2-(2-(methoxymethyl)-7-methylquinoxalin-5-yl)benzo[d]thiazole], the IC50 was found to be 6.8 nM.
The figure for `COCc1cnc2c(-c3nc4c(Cl)cc(F)cc4s3)cc(C)cc2n1` [Example 266, 4-chloro-6-fluoro-2-(2-(methoxymethyl)-7-methylquinoxalin-5-yl)benzo[d]thiazole] is 2.2 nM.
`COCc1cnc2c(-c3nc4c(F)c(F)c(OC)cc4s3)cc(C)cc2n1` [Example 267, 4,5-difluoro-6-methoxy-2-(2-(methoxymethyl)-7-methylquinoxalin-5-yl)benzo[d]thiazole]: the concentration for half-maximal inhibition (IC50) was 0.8 nM.
The value for `COCc1cnc2c(-c3nc4cc(Cl)c(OC)cc4s3)cc(C)cc2n1` [Example 268, 5-chloro-6-methoxy-2-(2-(methoxymethyl)-7-methylquinoxalin-5-yl)benzo[d]thiazole] was 0.9 nM; that for `COCc1cnc2c(-c3nc4c(OC)c(F)c(F)cc4s3)cc(C)cc2n1` [Example 269, 5,6-difluoro-4-methoxy-2-(2-(methoxymethyl)-7-methylquinoxalin-5-yl)benzo [d]thiazole] was 3.6 nM; that for `COCc1cnc2c(-c3nc4c(OC)cc(F)cc4s3)cc(C)cc2n1` [Example 270, 6-fluoro-4-methoxy-2-(2-(methoxymethyl)-7-methylquinoxalin-5-yl)benzo[d]thiazole] was 17 nM.
Regarding `COCc1cnc2c(-c3nc4c(OC)c(F)c(OC)cc4s3)cc(C)cc2n1` [Example 271, 5-fluoro-4,6-dimethoxy-2-(2-(methoxymethyl)-7-methylquinoxalin-5-yl)benzo[d]thiazole], the half-inhibitory concentration (IC50) is 1.5 nM.
Take `COCc1cnc2c(-c3nc4ccc(F)cc4s3)cc(C)cc2n1` [Example 272, 6-fluoro-2-(2-(methoxymethyl)-7-methylquinoxalin-5-yl)benzo[d]thiazole]: the IC50 is 3.2 nM.
For `COCc1cnc2c(-c3nc4c(F)cccc4s3)cc(C)cc2n1` [Example 273, 4-fluoro-2-(2-(methoxymethyl)-7-methylquinoxalin-5-yl)benzo[d]thiazole], the IC50 was 4.3 nM.
The value for `COCc1cnc2c(-c3nc4ccc(Cl)cc4s3)cc(C)cc2n1` [Example 274, 6-chloro-2-(2-(methoxymethyl)-7-methylquinoxalin-5-yl)benzo[d]thiazole] was 5.7 nM; that for `COCc1cnc2c(-c3nc4c(Cl)cc(Cl)cc4s3)cc(C)cc2n1` [Example 275, 4,6-dichloro-2-(2-(methoxymethyl)-7-methylquinoxalin-5-yl)benzo[d]thiazole] was 0.9 nM.
The figure for `COCc1cnc2c(-c3nc4cc(C)c(OC)cc4s3)cc(C)cc2n1` [Example 276, 6-methoxy-2-(2-(methoxymethyl)-7-methylquinoxalin-5-yl)-5-methylbenzo[d]thiazole] is 1.2 nM; for `COCc1cnc2c(-c3nc4cc(F)c(OC)cc4s3)cc(C)cc2n1` [Example 277, 5-fluoro-6-methoxy-2-(2-(methoxymethyl)-7-methylquinoxalin-5-yl)benzo[d]thiazole] it is 9 nM.
On to `COc1cnc2c(-c3nc4c(F)c(F)c(OC)cc4s3)cc(C)cc2n1` [Example 278, 4,5-difluoro-6-methoxy-2-(2-methoxy-7-methylquinoxalin-5-yl)benzo[d]thiazole], for which the IC50 amounted to 4.6 nM.
As for `COc1cnc2c(-c3nc4cc(C)c(OC)cc4s3)cc(C)cc2n1` [Example 279, 6-methoxy-2-(2-methoxy-7-methylquinoxalin-5-yl)-5-methylbenzo[d]thiazole], the half-inhibitory concentration (IC50) turned out to be 18 nM.
The value for `COc1cnc2c(-c3nc4cc(F)c(OC)cc4s3)cc(C)cc2n1` [Example 280, 5-fluoro-6-methoxy-2-(2-methoxy-7-methylquinoxalin-5-yl)benzo[d]thiazole] was 4.3 nM; that for `COCc1cnc2c(-c3nc4c(C)cc(O)cc4s3)cc(C)cc2n1` [Example 281, 2-(2-(methoxymethyl)-7-methylquinoxalin-5-yl)-4-methylbenzo[d]thiazol-6-ol] was 3.6 nM; that for `COc1cnc2c(-c3nc4c(Cl)c(F)c(OC)cc4s3)cc(C)cc2n1` [Example 282, 4-chloro-5-fluoro-6-methoxy-2-(2-methoxy-7-methylquinoxalin-5-yl)benzo[d]thiazole] was 1.1 nM.
The value for `COCc1cnc2c(-c3nc4c(Cl)c(F)c(OC)cc4s3)cc(C)cc2n1` [Example 283, 4-chloro-5-fluoro-6-methoxy-2-(2-(methoxymethyl)-7-methylquinoxalin-5-yl)benzo[d]thiazole] was 1.9 nM; that for `COCc1cnc2c(-c3nc4c(C)c(C)c(OC)cc4s3)cc(C)cc2n1` [Example 284, 6-methoxy-2-(2-(methoxymethyl)-7-methylquinoxalin-5-yl)-4,5-dimethylbenzo[d]thiazole] was 5.9 nM.
Consider `COC(=O)COc1cc2sc(-c3cc(C)cc4nc(OC)cnc34)nc2c(C)c1F` [Example 285, methyl 2-((5-fluoro-2-(2-methoxy-7-methylquinoxalin-5-yl)-4-methylbenzo[d]thiazol-6-yl)oxy)acetate], for which the 50% inhibitory concentration (IC50) was found to be 16 nM.
With `COCc1cnc2c(-c3nc4c(C)c(F)c(OCC(=O)OC)cc4s3)cc(C)cc2n1` [Example 286, methyl 2-((5-fluoro-2-(2-(methoxymethyl)-7-methylquinoxalin-5-yl)-4-methylbenzo[d]thiazol-6-yl)oxy)acetate], the IC50 came out at 0.5 nM.
Take `COC(=O)COc1cc2sc(-c3cc(C)cc4nc(OC)cnc34)nc2c(Cl)c1F` [Example 287, methyl 2-((4-chloro-5-fluoro-2-(2-methoxy-7-methylquinoxalin-5-yl)benzo[d]thiazol-6-yl)oxy)acetate]: the 50% inhibitory concentration (IC50) worked out at 8.5 nM.
The value for `COc1cnc2c(-c3nc4c(C)c(F)c(OCCO)cc4s3)cc(C)cc2n1` [Example 288, 2-((5-fluoro-2-(2-methoxy-7-methylquinoxalin-5-yl)-4-methylbenzo[d]thiazol-6-yl)oxy)ethanol] was 8.6 nM.
